Like-named read-outs stand apart in the source and are kept apart here.
Legend:
Bifidobacterium animalis = assay: Anaerobic agar-dilution AST (MIC, checkerboard FIC); type: cell-based
[1] = test system: facultative anaerobic pathogens; assay: microbe, parasite or virus in culture; type: cell-based
Porphyromonas gingivalis = assay: Anaerobic agar-dilution AST (MIC, checkerboard FIC); type: cell-based; details: ATCC33277
Clostridium septicum = assay: as above; type: cell-based; details: for MIC vs clinical breakpoint (susceptibility): anaerobic (Table 17); for MIC: Clostridium septicum
Enterococcus faecalis = assay: Aerobic agar-dilution AST of facultative anaerobes (MIC, checkerboard FIC); type: cell-based
Escherichia coli [2] = assay: Post-antibiotic effect (PAE) in vitro, viable counts; details: Escherichia coli ATCC 25922
Bacteroides ovatus = assay: Anaerobic agar-dilution AST (MIC, checkerboard FIC); type: cell-based
Prevotella intermedia = assay: as above; type: cell-based
[3] = test system: Aggretibacter actinomycetemcomitans; assay: as above; type: cell-based; details: strain D751, anaerobic
Escherichia coli [4] = assay: Aerobic agar-dilution AST of facultative anaerobes (MIC, checkerboard FIC); type: cell-based
Clostridium perfringens = assay: microbe, parasite or virus in culture; type: cell-based; details: for MIC vs clinical breakpoint (susceptibility): anaerobic (Table 17)
Cutibacterium acnes = assay: Anaerobic agar-dilution AST (MIC, checkerboard FIC); type: cell-based
Pediococcus pentosaceus = assay: AST (MIC) of beneficial or mutualistic facultative anaerobic bacteria; type: cell-based
[5] = test system: Lactobacillus delbrueckii; assay: as above; type: cell-based
[6] = test system: Lactobacillus acidophilus; assay: as above; type: cell-based
Enterococcus faecium = assay: Aerobic agar-dilution AST of facultative anaerobes (MIC, checkerboard FIC), also at pH 5, 7, 8; type: cell-based; details: Enterococcus faecium 51559

## C[C@@H]1O[C@@H]1P(=O)(O)O [F, fosfomycin sodium]
Bifidobacterium animalis; Bifidobacterium animalis
  MIC: 128 µg/mL
Bifidobacterium animalis; Bifidobacterium animalis JLP-002, anaerobic (Table 17)
  MIC vs clinical breakpoint (susceptibility): −
Bifidobacterium animalis; Bifidobacterium animalis TBC0002, anaerobic
  MIC: 32 µg/mL
Bifidobacterium animalis; Bifidobacterium animalis, Bifidobacterium animalis TBC0002, anaerobic, read-out: MIC
  MIC: 64 µg/mL
Bifidobacterium animalis; Bifidobacterium, anaerobic
  susceptibility: no susceptibility
Bifidobacterium animalis; strain TBC0002, anaerobic
  MIC: 128 µg/mL
[1]; Bacillus cereus, ATCC14579, pH 7, read-out: MIC
  MIC: 64000 µg/mL
[1]; Bacillus cereus, ATCC14579, pH 8, read-out: MIC
  MIC: 32000 µg/mL
[1]; Bacillus cereus, pH 5, read-out: MIC
  MIC: 4000 µg/mL
[1]; Bacillus subtilis, pH 5, read-out: MIC
  MIC: 64000 µg/mL
[1]; Yersinia pseudotuberculosis, ATCC6905, pH 7
  MIC: 64000 µg/mL
[1]; Yersinia pseudotuberculosis, pH 5
  MIC: 2000 µg/mL
Porphyromonas gingivalis
  MIC: > 128 µg/mL
Clostridium septicum; Clostridium septicum 11-3571
  MIC vs clinical breakpoint (susceptibility): +
Clostridium septicum; Clostridium septicum 15-847
  MIC vs clinical breakpoint (susceptibility): +
Clostridium septicum; strain 11-3571, anaerobic
  MIC: 16 µg/mL
Clostridium septicum; strain 15-847, anaerobic
  MIC: 32 µg/mL
Enterococcus faecalis; Enterococcus faecalis
  MIC: > 128 µg/mL
Enterococcus faecalis; Enterococcus faecalis 108, pH 5, read-out: MIC
  MIC: 8000 µg/mL
Enterococcus faecalis; Enterococcus faecalis 1086432, pH 7, read-out: MIC
  MIC: 64000 µg/mL
Enterococcus faecalis; Enterococcus faecalis, ATCC51559
  MIC: > 128 µg/mL
Escherichia coli [2]; exposure μg/ml: F 1, D/S 0.5/9.5, CAv 4/8, F/D/S 0.125/0.125/2.38, F/D/S/CAv 0.06/0.03/0.6/4/0.25
  PAE: 0.5 h
Escherichia coli [2]; exposure μg/ml: F 2, D/S 1/19, CAv 4/16, F/D/S 0.25/0.25/4.75, F/D/S/CAv 0.125/0.06/1.19/4/0.5
  PAE: 0.5 h
Escherichia coli [2]; exposure μg/ml: F 4, D/S 2/38, CAv 4/32, F/D/S 0.5/0.5/9.5, F/D/S/CAv 0.25/0.125/2.38/4/1
  PAE: 1 h
Escherichia coli [2]; exposure μg/ml: F 8
  PAE: 1.5 h
Bacteroides ovatus; Bacteroides ovatus ATCC 8483, anaerobic
  MIC: >128 µg/mL
Bacteroides ovatus; Bacteroides ovatus ATCC 8483, anaerobic (Table 17)
  MIC vs clinical breakpoint (susceptibility): −
Bacteroides ovatus; Bacteroides ovatus, ATCC8483
  MIC: > 128 µg/mL
Prevotella intermedia; Prevotella intermedia, Prevotella intermedia 8071621, anaerobic
  MIC: > 128 µg/mL
Prevotella intermedia; Prevotella intermedia, strain 807114, anaerobic
  MIC: > 128 µg/mL
Prevotella intermedia; Prevotella intermedia, strain 8071621, anaerobic
  MIC: > 128 µg/mL
Prevotella intermedia; Prevotella intermedia, strain 8071621, anaerobic, read-out: MIC
  MIC: 64 µg/mL
Prevotella intermedia; strain 8071621, anaerobic
  MIC: 128 µg/mL
[3]
  MIC: 16 µg/mL
Escherichia coli [4]; ATCC25922, Escherichia coli ATCC 25922 (Table 15)
  MIC: 1 µg/mL
Escherichia coli [4]; ATCC25922, strain ATCC 25922, aerobic
  MIC: 2 µg/mL
Escherichia coli [4]; Escherichia coli 846446
  MIC: 1 µg/mL
Escherichia coli [4]; Escherichia coli 854535
  MIC: 4 µg/mL
Escherichia coli [4]; Escherichia coli 976657
  MIC: 16 µg/mL
Escherichia coli [4]; pH 5, Escherichia coli 857021, pH 5
  MIC: 2000 µg/mL
Escherichia coli [4]; pH 7, Escherichia coli 857021, pH 7
  MIC: 32000 µg/mL
Escherichia coli [4]; pH 7, Escherichia coli CDC-0089, pH 7
  MIC: 2000 µg/mL
Escherichia coli [4]; pH 8, Escherichia coli 25922, pH 8
  MIC: 8000 µg/mL
Escherichia coli [4]; pH 8, Escherichia coli 857021, pH 8
  MIC: 4000 µg/mL
Escherichia coli [4]; pH 8, Escherichia coli CDC-0089, pH 8
  MIC: 64000 µg/mL
Escherichia coli [4]; strain 846446, aerobic
  MIC: 2 µg/mL
Escherichia coli [4]; strain 846450, aerobic
  MIC: 4 µg/mL
Escherichia coli [4]; strain 854566, aerobic
  MIC: 16 µg/mL
Escherichia coli [4]; strain 857021, aerobic
  MIC: 2 µg/mL
Escherichia coli [4]; strain 863678, aerobic
  MIC: 2 µg/mL
Escherichia coli [4]; strain 863696, aerobic
  MIC: 8 µg/mL
Escherichia coli [4]; strain 928017, aerobic
  MIC: 2 µg/mL
Escherichia coli [4]; strain 959117, aerobic
  MIC: 2 µg/mL
Escherichia coli [4]; strain 961128, aerobic
  MIC: 2 µg/mL
Escherichia coli [4]; strain 975811, aerobic
  MIC: 4 µg/mL
Escherichia coli [4]; strain 976657, aerobic
  MIC: 4 µg/mL
Escherichia coli [4]; strain 977941, aerobic
  MIC: 4 µg/mL
Escherichia coli [4]; strain 996332, aerobic
  MIC: 4 µg/mL
Clostridium perfringens; Clostridium perfringens 2-0246-4
  MIC vs clinical breakpoint (susceptibility): +
Clostridium perfringens; Clostridium perfringens 11-46
  MIC vs clinical breakpoint (susceptibility): +
Clostridium perfringens; Clostridium perfringens 11-50
  MIC vs clinical breakpoint (susceptibility): +
Clostridium perfringens; Clostridium perfringens 11-61
  MIC vs clinical breakpoint (susceptibility): +
Clostridium perfringens; Clostridium perfringens 12-117, anaerobic
  MIC: 16 µg/mL
Clostridium perfringens; Clostridium perfringens 12-117
  MIC vs clinical breakpoint (susceptibility): +
Clostridium perfringens; Clostridium perfringens, Clostridium perfringens 11-46, anaerobic
  MIC: 32 µg/mL
Clostridium perfringens; Clostridium perfringens, Clostridium perfringens 11-50, anaerobic
  MIC: 8 µg/mL
Clostridium perfringens; Clostridium perfringens, Clostridium perfringens 11-61, anaerobic
  MIC: 16 µg/mL
Clostridium perfringens; Clostridium perfringens, Clostridium perfringens 12-117, anaerobic
  MIC: 32 µg/mL
Clostridium perfringens; Clostridium perfringens, strain 2-0246-4, anaerobic
  MIC: 16 µg/mL
Clostridium perfringens; Clostridium perfringens, strain 11-50, anaerobic
  MIC: 16 µg/mL
Clostridium perfringens; Clostridium perfringens, strain 12-117, anaerobic
  MIC: 32 µg/mL
Clostridium perfringens; strain 2-0246-4, anaerobic
  MIC: 8 µg/mL
Clostridium perfringens; strain 11-50, anaerobic
  MIC: 8 µg/mL
Clostridium perfringens; strain 12-117, anaerobic
  MIC: 16 µg/mL
Cutibacterium acnes; Cutibacterium acnes
  MIC: 128 µg/mL
Cutibacterium acnes; Cutibacterium acnes 6609, anaerobic (Table 17)
  MIC vs clinical breakpoint (susceptibility): +
Cutibacterium acnes; Cutibacterium acnes, Cutibacterium acnes 6609, anaerobic, read-out: MIC
  MIC: 64 µg/mL
Cutibacterium acnes; Cutibacterium acnes, strain 6609, anaerobic, read-out: MIC
  MIC: 32 µg/mL
Cutibacterium acnes; strain 6609, anaerobic
  MIC: 64 µg/mL
Pediococcus pentosaceus
  MIC: > 128 µg/mL
[5]
  MIC: > 128 µg/mL
[6]
  MIC: > 128 µg/mL
Enterococcus faecium; pH 5
  MIC: 16000 µg/mL
Enterococcus faecium; pH 8
  MIC: 64000 µg/mL

Reference: patent publication US20230398101A1, “Co-agents as Therapy Against Anaerobic Pathogens” (priority 2022, published 2023)
